Reference: US4316891A, “Extended N-terminal somatostatin” (The Salk Institute for Biological Studies, priority 1980, dated 1982)
Where a SMILES comes first, the peptide text is derived from it. Bridges are numbered along the chain shown (N, C = ends).

Legend:
[1] = test system: cells of rat pituitary glands; experiment: in vitro inhibition of basal growth hormone secretion in rat pituitary cell cultures, side-by-side with somatostatin; format: cell-based; settings: substantially pure peptide, in words
Description: To determine the effectiveness of the peptides to inhibit the release of growth hormone, in vitro assays are carried out using both somatostatin-28and somatostatin-25 in side-by-side comparison with equimolar concentrations of somotostatin having a known effectiveness to inhibit the release of growth hormone by pituitary cells. Cultures are used which include cells of rat pituitary glands removed some four to five days previously. Both cultures of a defined standard medium and cultures which are considered optimal for the secretion of growth hormone, as a result of having additions of either 2% or 10% of serum from a foetal calf, are used for the comparative testing between either somatostatin and somatostatin-28 or between somatostatin and somatostatin-25.
(§1) The statistical analysis of the results is carried out generally in accordance with the EXBIOL program reported in the article by Sakiz, Excerpta Medica, Int. Cong. Ser. No. 83 (1964), pp. 225-229.

[2] = test system: secretion of growth hormone; experiment: in vivo inhibition of growth hormone secretion stimulated by morphine in rats; settings: in words
Description: as §1

[3] = juvenile-type diabetics, complete absence of circulating insulin; cited from earlier work

| Molecule | potency versus somatostatin in inhibiting the release of GH in vitro [1] | activity versus somatostatin to inhibit growth hormone secretion stimulated by morphine [2] | diminution of fasting hyperglycemia [3] [%] |
| --- | --- | --- | --- |
| CSCC[C@H](NC(=O)[C@H](C)NC(=O)[C@@H]1CCCN1C(=O)[C@H](CC(N)=O)NC(=O)[C@@H](N)CO)C(=O)N[C@@H](C)C(=O)N1CCC[C@H]1C(=O)N[C@@H](CCCNC(=N)N)C(=O)N[C@@H](CCC(=O)O)C(=O)N[C@@H](CCCNC(=N)N)C(=O)N[C@@H](CCCCN)C(=O)N[C@@H](C)C(=O)NCC(=O)N[C@H]1CSSC[C@@H](C(=O)O)NC(=O)[C@H](CO)NC(=O)[C@H]([C@@H](C)O)NC(=O)[C@H](Cc2ccccc2)NC(=O)[C@H]([C@@H](C)O)NC(=O)[C@H](CCCCN)NC(=O)[C@H](Cc2c[nH]c3ccccc23)NC(=O)[C@H](Cc2ccccc2)NC(=O)[C@H](Cc2ccccc2)NC(=O)[C@H](CC(N)=O)NC(=O)[C@H](CCCCN)NC1=O [somatostatin-25] (H-SNPAMAPRERKAGCKNFFWKTFTSC-OH; disulfide 14-25) | more potent than somatostatin | much more active than somatostatin |  |
| CSCC[C@H](NC(=O)[C@H](C)NC(=O)[C@@H]1CCCN1C(=O)[C@H](CC(N)=O)NC(=O)[C@H](CO)NC(=O)[C@H](CC(N)=O)NC(=O)[C@H](C)NC(=O)[C@@H](N)CO)C(=O)N[C@@H](C)C(=O)N1CCC[C@H]1C(=O)N[C@@H](CCCNC(=N)N)C(=O)N[C@@H](CCC(=O)O)C(=O)N[C@@H](CCCNC(=N)N)C(=O)N[C@@H](CCCCN)C(=O)N[C@@H](C)C(=O)NCC(=O)N[C@H]1CSSC[C@@H](C(=O)O)NC(=O)[C@H](CO)NC(=O)[C@H]([C@@H](C)O)NC(=O)[C@H](Cc2ccccc2)NC(=O)[C@H]([C@@H](C)O)NC(=O)[C@H](CCCCN)NC(=O)[C@H](Cc2c[nH]c3ccccc23)NC(=O)[C@H](Cc2ccccc2)NC(=O)[C@H](Cc2ccccc2)NC(=O)[C@H](CC(N)=O)NC(=O)[C@H](CCCCN)NC1=O [somatostatin-28] | more potent than somatostatin | much more active than somatostatin |  |
| somatostatin: tetradecapeptide somatostatin characterized by Guillemin et al., U.S. Pat. No. 3,904,594 (H-AGCKNFFWKTFTSC-OH; disulfide 3-14; ends not checked; UniProt P61278 103-116, looked up) |  |  | ≤ 50 |
